Reference: patent US20260007133A1, “HERBICIDAL COMPOSITION COMPRISING AZINE COMPOUNDS” (BASF SE, priority 2022, published 2026)
Where two headings read alike, the source gives them in different places.

Legend:
Type in all cases: in vivo
Amaranthus retroflexus = experiment: Greenhouse post-emergence (POST) herbicidal test on AMARE; details: Amaranthus retroflexus, post-emergence, 480 h, POST, AMARE, 20 DAT, read-out: solo application % activity
Procedure, shortened: (§1)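 Weeds grown in loamy sand (~3.0% humus) to 3–15 cm were sprayed post-emergence with compounds suspended or emulsified in water, formulated as 5% emulsion concentrates. Plants were kept at 10-25 °C or 20-35 °C by species. Damage was scored 0–100 (100 = complete destruction) at 20 DAT.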

Commelina benghalensis = experiment: Greenhouse pre-emergence (PRE) herbicidal test on COMBE; details: Commelina benghalensis, pre-emergence, 480 h, PRE, COMBE, 20 DAT
Procedure, shortened: (§2)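 Herbicidal effect was assessed 20 DAT after pre-emergence treatment of sown pots, using a 0-100 scale where 100 means no emergence or destruction of at least the above-ground parts.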

Setaria viridis = experiment: Greenhouse pre-emergence (PRE) herbicidal test on SETVI; details: Setaria viridis, pre-emergence; for inhibition at 2 g/ha: use rate 2 gai/ha
Procedure, shortened: (§3)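 First, each species was sown separately in loamy sand containing about 3.0% humus. Then the aqueous active compound was applied by finely distributing nozzles straight after sowing, pots were gently irrigated and covered with transparent hoods, and injury was assessed on a 0–100 scale at 20 DAT.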

Lolium multiflorum = experiment: Greenhouse pre-emergence (PRE) herbicidal test on LOLMU; details: Lolium multiflorum, pre-emergence; for inhibition at 8 g/ha: use rate 8 gai/ha
Procedure, shortened: as §2

Euphorbia heterophylla [1] = experiment: Greenhouse pre-emergence (PRE) herbicidal test on EPHHL; details: Euphorbia heterophylla, pre-emergence; for inhibition at 8 g/ha: use rate 8 gai/ha
Procedure, shortened: as §2

Echinochloa crus-galli = experiment: Greenhouse post-emergence (POST) herbicidal test on ECHCG; details: Echinochloa crus-galli, post-emergence, 480 h, POST, ECHCG, 20 DAT, read-out: solo application % activity
Procedure, shortened: as §1

Euphorbia heterophylla [2] = experiment: Greenhouse post-emergence (POST) herbicidal test on EPHHL; details: Euphorbia heterophylla, post-emergence, 480 h, POST, EPHHL, 20 DAT, read-out: solo application % activity
Procedure, shortened: as §1

Geranium pusillum = experiment: Greenhouse pre-emergence (PRE) herbicidal test on GERPU; details: Geranium pusillum, pre-emergence, 480 h, PRE, use rate 2 gai/ha, 20 DAT
Procedure, shortened: as §3

Abutilon theophrasti = experiment: Greenhouse post-emergence (POST) herbicidal test on ABUTH; details: Abutilon theophrasti, post-emergence, 480 h, POST, ABUTH, 20 DAT
Procedure, shortened: as §1

Ambrosia artemisiifolia = experiment: Greenhouse pre-emergence (PRE) herbicidal test on AMBEL; details: Ambrosia artemisiifolia, pre-emergence; for inhibition at 8 g/ha: use rate 8 gai/ha
[3] = use rate 8 gai/ha, read-out: solo application % activity

## COc1c(Cl)c(F)c(F)c(F)c1Nc1nc(N)nc(C(C)(C)F)n1 [Compound I-4, N4-(5-Chloro-2,3,4-trifluoro-6-methoxy-phenyl)-6-(1-fluoro-1-methyl-ethyl)-1,3,5-triazine-2,4-diamine]
Amaranthus retroflexus; use rate 2 gai/ha
  inhibition at 2 g/ha: 80%
Amaranthus retroflexus; use rate 8 gai/ha
  inhibition at 8 g/ha: 75%
Commelina benghalensis; I-4 solo 2 gai/ha, read-out: % activity
  pest or weed control at 2 g/ha: 10%
Commelina benghalensis; [3]
  inhibition at 8 g/ha: 10%
Setaria viridis; 480 h, PRE, SETVI, I-4 solo 8 gai/ha, 20 DAT
  pest or weed control at 8 g/ha: 80%
Setaria viridis; 480 h, PRE, SETVI, 20 DAT, read-out: solo application % activity
  inhibition at 2 g/ha: 5%
Setaria viridis; 480 h, PRE, SETVI, use rate 8 gai/ha, 20 DAT, read-out: solo application % activity
  inhibition at 8 g/ha: 75%
Setaria viridis; SETVI PRE, read-out: % activity
  inhibition at 2 g/ha: 50%
Lolium multiflorum; 480 h, PRE, LOLMU, I-4 solo 2 gai/ha, 20 DAT, read-out: % activity
  pest or weed control at 2 g/ha: 10%
Lolium multiflorum; 480 h, PRE, LOLMU, I-4 solo 8 gai/ha, 20 DAT
  pest or weed control at 8 g/ha: 65%
Lolium multiflorum; 480 h, PRE, LOLMU, use rate 2 gai/ha, 20 DAT, read-out: solo application % activity
  inhibition at 2 g/ha: 5%
Lolium multiflorum; 480 h, PRE, LOLMU, 20 DAT, read-out: solo application % activity
  inhibition at 8 g/ha: 60%
Lolium multiflorum; LOLMU PRE, read-out: % activity
  inhibition at 8 g/ha: 35%
Euphorbia heterophylla [1]; 480 h, PRE, EPHHL, I-4 solo 8 gai/ha, 20 DAT
  pest or weed control at 8 g/ha: 5%
Euphorbia heterophylla [1]; 480 h, PRE, EPHHL, use rate 2 gai/ha, 20 DAT, read-out: solo application % activity
  inhibition at 2 g/ha: 0%
Euphorbia heterophylla [1]; 480 h, PRE, EPHHL, 20 DAT, read-out: solo application % activity
  inhibition at 8 g/ha: 10%
Euphorbia heterophylla [1]; EPHHL PRE, read-out: % activity
  inhibition at 8 g/ha: 40%
Echinochloa crus-galli; use rate 2 gai/ha
  inhibition at 2 g/ha: 0%
Echinochloa crus-galli; use rate 8 gai/ha
  inhibition at 8 g/ha: 5%
Euphorbia heterophylla [2]; use rate 2 gai/ha
  inhibition at 2 g/ha: 30%
Euphorbia heterophylla [2]; use rate 8 gai/ha
  inhibition at 8 g/ha: 35%
Geranium pusillum
  inhibition at 2 g/ha: 10%
Abutilon theophrasti; I-4 solo 2 gai/ha
  pest or weed control at 2 g/ha: 20%
Abutilon theophrasti; use rate 2 gai/ha, read-out: solo application % activity
  inhibition at 2 g/ha: 10%
Abutilon theophrasti; [3]
  inhibition at 8 g/ha: 10%
Ambrosia artemisiifolia; 240 h, PRE, use rate 4 gai/ha, 10 DAT
  inhibition at 4 g/ha: 10%
Ambrosia artemisiifolia; 480 h, PRE, AMBEL, I-4 solo 8 gai/ha, 20 DAT
  pest or weed control at 8 g/ha: 35%
Ambrosia artemisiifolia; 480 h, PRE, AMBEL, use rate 2 gai/ha, 20 DAT, read-out: solo application % activity
  inhibition at 2 g/ha: 0%
Ambrosia artemisiifolia; 480 h, PRE, AMBEL, 20 DAT, read-out: solo application % activity
  inhibition at 8 g/ha: 30%
Ambrosia artemisiifolia; AMBEL PRE, read-out: % activity
  inhibition at 8 g/ha: 15%
